Experimental data published in PubChem BioAssay (NCI).
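All cell lines were grown in 96-well plates and treated with compound for 48 hours. TGI: total growth inhibition.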

Legend:
Experiment in all cases: NCI anticancer screen, dose series, 48 h
CCRF-CEM leukemia = tested on: CCRF-CEM leukemia
COLO 205 colon = tested on: COLO 205 colon
DU-145 prostate = tested on: DU-145 prostate
HCT-116 colon = tested on: HCT-116 colon
HS 578T breast = tested on: HS 578T breast
HT29 colon = tested on: HT29 colon
MOLT-4 leukemia = tested on: MOLT-4 leukemia
OVCAR-3 ovarian = tested on: OVCAR-3 ovarian
OVCAR-4 ovarian = tested on: OVCAR-4 ovarian
OVCAR-5 ovarian = tested on: OVCAR-5 ovarian
RPMI-8226 leukemia = tested on: RPMI-8226 leukemia
RXF 393 renal = tested on: RXF 393 renal
SW-620 colon = tested on: SW-620 colon
UACC-62 melanoma = tested on: UACC-62 melanoma
UO-31 renal = tested on: UO-31 renal
SR leukemia = tested on: SR leukemia

Compound	TGI (CCRF-CEM leukemia)	TGI (COLO 205 colon)	TGI (DU-145 prostate)	TGI (HCT-116 colon)	TGI (HS 578T breast)	TGI (HT29 colon)	TGI (MOLT-4 leukemia)	TGI (OVCAR-3 ovarian)	TGI (OVCAR-4 ovarian)	TGI (OVCAR-5 ovarian)	TGI (RPMI-8226 leukemia)	TGI (RXF 393 renal)	TGI (SW-620 colon)	TGI (UACC-62 melanoma)	TGI (UO-31 renal)	TGI (SR leukemia)
CN(C)/C=N/c1cc(=O)n(C)c(=O)n1C	> 100 µM	> 100 µM	> 100 µM	> 100 µM	> 100 µM	> 100 µM	> 100 µM	> 100 µM	> 100 µM	> 100 µM	> 100 µM	> 100 µM	> 100 µM	> 100 µM	> 100 µM	–
CC1=CP(=O)(OC(C)C)C=C(C)C1=C(Cl)Cl (stereo not given)	> 100 µM	35 µM	–	70.5 µM	–	> 100 µM	> 100 µM	> 100 µM	> 100 µM	> 100 µM	> 100 µM	> 100 µM	> 100 µM	> 100 µM	27.2 µM	> 100 µM
Nc1nc(N)c(N=Nc2ccccc2)c(=O)[nH]1	> 100 µM	> 100 µM	–	> 100 µM	–	> 100 µM	> 100 µM	> 100 µM	> 100 µM	> 100 µM	> 100 µM	–	> 100 µM	69.7 µM	> 100 µM	> 100 µM
COC(=O)C(Cc1c(-c2[nH]c3ccccc3c2CC(NC(C)=O)C(=O)OC)[nH]c2ccccc12)NC(C)=O (stereo not given)	> 100 µM	> 100 µM	> 100 µM	> 100 µM	> 100 µM	> 100 µM	> 100 µM	> 100 µM	–	> 100 µM	> 100 µM	> 100 µM	> 100 µM	> 100 µM	> 100 µM	–
CC(=O)c1ccc(NC(=O)C(=O)CC(=O)c2sc(-n3nc(-c4ccccc4)cc3-c3ccccc3)nc2C)cc1	> 100 µM	> 100 µM	–	> 100 µM	–	> 100 µM	> 100 µM	> 100 µM	> 100 µM	> 100 µM	> 100 µM	> 100 µM	> 100 µM	> 100 µM	> 100 µM	> 100 µM
O=[N+]([O-])c1ccc(C2=NOC(c3ccccc3)N2C23CC4CC(CC(C4)C2)C3)cc1 (stereo not given)	47.5 µM	88.1 µM	95 µM	63.9 µM	52.6 µM	44.6 µM	37.8 µM	50.1 µM	> 100 µM	53.2 µM	–	–	> 100 µM	85.8 µM	67.3 µM	–
CN(C)CCNc1ncnc2nc(-c3ccccc3)c(-c3ccccc3)nc12	> 100 µM	> 100 µM	> 100 µM	> 100 µM	> 100 µM	> 100 µM	76 µM	> 100 µM	–	> 100 µM	–	> 100 µM	> 100 µM	> 100 µM	> 100 µM	–
NN/C(=N\S(=O)(=O)c1cc(S(=O)(=O)c2ccccc2)cs1)Nc1ccc(Cl)cc1	69.2 µM	43.4 µM	> 100 µM	74.6 µM	–	> 100 µM	56.2 µM	54.2 µM	66.5 µM	> 100 µM	> 100 µM	53.9 µM	> 100 µM	43.2 µM	> 100 µM	48.5 µM
O=S(=O)(Cc1ccccc1)c1nnc(S(=O)(=O)c2ccc(Cl)cc2)s1	–	36.6 µM	34.3 µM	36 µM	39.8 µM	60.7 µM	> 100 µM	58.6 µM	> 100 µM	56.8 µM	61.9 µM	33.8 µM	64.1 µM	58.7 µM	44.5 µM	–
C#CCC(O)c1ccc(OC)c(OCc2ccccc2)c1 (stereo not given)	> 100 µM	> 100 µM	> 100 µM	> 100 µM	> 100 µM	> 100 µM	56.6 µM	> 100 µM	> 100 µM	> 100 µM	> 100 µM	> 100 µM	–	> 100 µM	> 100 µM	–
C=C1[C@@H](OC(C)=O)/C=C/C2C3C(=O)[C@@](C)(OC(C)=O)[C@H]([C@H](OC(C)=O)[C@]4(O)[C@@H](C)C(=O)O[C@H]4[C@H]1Cl)[C@@]23C (stereo not given in full)	> 100 µM	> 100 µM	> 100 µM	> 100 µM	> 100 µM	> 100 µM	> 100 µM	> 100 µM	> 100 µM	> 100 µM	> 100 µM	> 100 µM	> 100 µM	> 100 µM	> 100 µM	–
Cc1ccc(NC(=O)CC(=O)N2N=C(N(c3ccccc3)c3ccccc3)CC2c2ccccc2)cc1 (stereo not given)	> 100 µM	> 100 µM	> 100 µM	> 100 µM	86 µM	> 100 µM	> 100 µM	> 100 µM	> 100 µM	> 100 µM	> 100 µM	> 100 µM	> 100 µM	> 100 µM	> 100 µM	–
O=C(O[C@H](/C=C/c1ccccc1)P1(=O)N(Cc2ccccc2)[C@H]2CCCC[C@@H]2N1Cc1ccccc1)c1ccccc1	> 100 µM	3.27 µM	–	17 µM	> 100 µM	> 100 µM	–	> 100 µM	6.19 µM	> 100 µM	17.8 µM	–	> 100 µM	> 100 µM	38.3 µM	> 100 µM
O=C(N[C@H](CO)[C@H](O)c1ccc([N+](=O)[O-])cc1)C(Cl)Cl	> 100 µM	> 100 µM	> 100 µM	> 100 µM	–	> 100 µM	> 100 µM	> 100 µM	> 100 µM	> 100 µM	> 100 µM	> 100 µM	> 100 µM	> 100 µM	> 100 µM	> 100 µM
Cc1ccc(N=NC(=O)NNc2ccc(C)cc2Br)c(Br)c1	21 µM	–	74 µM	24.6 µM	–	> 100 µM	60.4 µM	41.2 µM	> 100 µM	68.4 µM	66.5 µM	–	> 100 µM	36.1 µM	77.2 µM	90.1 µM
CN1C(=O)C(O)CC1c1ccccc1F (stereo not given)	> 100 µM	> 100 µM	> 100 µM	> 100 µM	–	> 100 µM	> 100 µM	> 100 µM	> 100 µM	> 100 µM	> 100 µM	> 100 µM	> 100 µM	> 100 µM	> 100 µM	> 100 µM
